Results on one compound are retold here after patent US20080038357A1, “Inhalation Powder Containing the CGRP antagonist BIBN4096 and Process for the Preparation Thereof” (priority 2002, published 2008).

A short description of data set [1]: Bioavailability after administration by inhalation. The following applies: in vivo, inhaled or intranasal; administered by inhalation as spherically nanostructured microparticles; based on the fine fraction of the formulation (FPD, USP 24 Suppl. 2000).
A short description of data set [2]: Stability of the amorphous state of the microparticles. The following applies: normal conditions (T<50° C., relative humidity <75%). It is filed as physicochemical.
The conditions of data set [3]: conventional preparations; cited from earlier work.

As for `NCCCC[C@H](NC(=O)[C@@H](Cc1cc(Br)c(O)c(Br)c1)NC(=O)N1CCC(N2Cc3ccccc3NC2=O)CC1)C(=O)N1CCN(c2ccncc2)CC1` [BIBN4096, 1-[N^2-[3,5-dibromo-N-[[4-(3,4-dihydro-2(1H)-oxoquinazolin-3-yl)-1-piperidinyl]carbonyl]-D-tyrosyl]-L-lysyl]-4-(4-pyridinyl)-piperazine], the bioavailability in data set [1] is around 60%. For the same compound, the “stability of amorphous state” value in data set [2] is on record as “stable in their amorphous state”. The “bioavailability by oral route” value in data set [3] was “only limited bioavailability by oral route”.
